Converted amounts (≈) assume the structure as drawn.
Experiments:
[1] = tested on: P. inhibens; test: Antibiofilm activity (inhibition of biofilm formation); format: cell-based, Phaeobacter inhibens DSM 17395; conditions: for Biofilm inhibition, up to (highest over tested concentrations) P. inhibens: 0.98-31.25 µg/mL tested; for inhibition at 15.6 µg/mL: 15.60 µg/mL
Description: (§1) To assess antimicrofouling activity, we selected five marine bacterial species as models: Marinobacter hydrocarbonoclasticus DSM 8798 (ATCC 49840), C. marina DSM 4741, Phaeobacter inhibens DSM 17,395, Pseusooceanicola batsensis DSM 15,984, and Micrococcus luteus DSM 20030 (ATCC 4698) ([Michael et al., 2016]). These strains, sourced from DSMZ (Leibniz Institute DSMZ—German Collection of Microorganisms and Cell Cultures), were cultured in liquid marine broth (Carl Roth GmbH, Karlsruhe, Germany) with agitation at 180 rpm or on agar-supplemented marine broth. Incubation temperatures were set at 28°C for M. hydrocarbonoclasticus and Cobetia marina, 30°C for P. inhibens and P. batsensis, while M. luteus was maintained at 37°C in Brain Heart Infusion broth (BHI, Becton Dickinson, GmbH, Heidelberg, Germany) under similar agitation conditions.
(§2) The antibiofilm potential of compounds (1) and (2) against the five marine bacterial species was investigated in 96-well polystyrene flat-bottom microplates (Nunclon Delta Surface, Thermo Scientific, Roskilde, Denmark), as described previously ([Bauermeister et al., 2019]; [Pereira et al., 2020]). In the initial screening, bacterial overnight cultures were diluted to an OD600 of 0.2 and incubated statically at appropriate temperatures. The cultures were tested at 31.25, 15.60, 7.81, 3.91, 1.95, 0.98 μg/mL concentrations (2-fold serial dilutions) of compounds (1) and (2), solubilized in DMSO, or left untreated. After 24 h (M. hydrocarbonoclasticus, C. marina) or 48 h (P. batsensis, P. inhibens, M. luteus) incubation, OD600 was measured. The planktonic cells and media were discarded, and the wells were washed twice with deionized water. Biofilms were fixed, stained, and quantified by measuring the OD600 after solubilization with acetic acid. Biofilm inhibition percentages were calculated relative to untreated bacterial species, using DMSO as a negative control and CuSO4 (0.16 μg/mL), as a positive control. All assays were performed in triplicate, and the results represent the mean and standard error of the mean (SEM). Statistical analysis was conducted using GraphPad Prism 8.0.2, employing one-way ANOVA followed by Dunnett’s multiple comparisons test against the negative control.

[2] = tested on: P. batsensis; test: Antibacterial activity (growth inhibition, OD600); format: cell-based, Pseudo-oceanicola batsensis DSM 15984; conditions: 48 h; for inhibition at 15.6 µg/mL: 15.60 µg/mL
Description: as §1
(§3) The antibacterial efficacy of compounds (1) and (2) was assessed in 96-well polystyrene flat-bottom microplates (Nunclon Delta Surface, Thermo Scientific, Roskilde, Denmark) following established procedures ([Bauermeister et al., 2019]). In the initial screening, bacterial overnight cultures were diluted to an optical density (OD600nm) of 0.2 and incubated statically at appropriate temperatures. The cultures were treated with the following final concentrations per well: 31.25, 15.60, 7.81, 3.91, 1.95, and 0.98 μg/mL (2-fold serial dilutions) of the compounds, solubilized in DMSO, or left untreated. After 24 h (M. hydrocarbonoclasticus, C. marina) or 48 h (P. batsensis, P. inhibens, M. luteus) incubation, optical density at 600 nm (OD600) was measured using a Molecular Devices Spectra Max 190. Growth inhibition percentages were calculated relatively to untreated bacterial species, using DMSO as a negative control. CuSO4 (0.16 μg/mL), a recognized antifouling agent, was used as positive control. All assays were conducted in triplicate, and the results represent the mean and standard error of the mean (SEM). Statistical analysis was carried out using GraphPad Prism 8.0.2 (San Diego, CA, United States), employing one-way ANOVA followed by Dunnett’s multiple comparisons test against the negative control.

[3] = tested on: M. hydrocarbonoclasticus; test: Antibiofilm activity (inhibition of biofilm formation); format: cell-based, Marinobacter hydrocarbonoclasticus DSM 8798; conditions: for Biofilm inhibition, up to (highest over tested concentrations) M. hydrocarbonoclasticus: 0.98-31.25 µg/mL tested; for inhibition at 15.6 µg/mL: 15.60 µg/mL
Description: as §1, §2

[4] = tested on: M. luteus; test: as above; format: cell-based, Micrococcus luteus DSM 20030
Description: as §1, §2

[5] = tested on: M. hydrocarbonoclasticus; test: Antibacterial activity (growth inhibition, OD600); format: cell-based, Marinobacter hydrocarbonoclasticus DSM 8798; conditions: 24 h
Description: as §1, §3

[6] = tested on: M. galloprovincialis plantigrade larvae; test: Mussel plantigrade larvae anti-settlement bioassay; format: in vivo, Mytilus galloprovincialis; conditions: 15 h acute exposure, 95% confidence limits in brackets; for EC50: Mytilus galloprovincialis, 15 h, read-out: EC50 [Conf. Limits] anti-settlement
Description: The in vivo antimacrofouling activity of compounds (1) and (2) was evaluated against mussel M. galloprovincialis adhesive larvae (plantigrades) in an acute bioassay. Juvenile mussel aggregates were harvested from the intertidal rocky shore during low spring tides at Memória beach, Matosinhos, Portugal. In the laboratory, precisely before the bioassays, mussel plantigrade larvae were meticulously screened and isolated from the juvenile aggregates using a binocular microscope (Olympus SZX2-ILLT, Hamburg, Germany). The isolated larvae were then washed with filtered seawater to eliminate organic debris, and competent plantigrade larvae, characterized by foot exploratory behavior, were selected for the exposure bioassays, following established protocols ([Almeida et al., 2017]; [Almeida et al., 2020]; [Antunes et al., 2019]; [Mabrouk et al., 2020]). Plantigrades were exposed in 24-well polystyrene plates for 15 h in darkness at 18°C. DMSO served as the solvent for the testing compounds in stock and working solutions. The DMSO concentration in the tested solutions was consistently maintained at 0.1%. Each condition was replicated in four wells, with five larvae per well. Two negative controls, one with ultra-pure water and other with DMSO were included in all bioassays, along with a positive control using 0.16 μg/mL CuSO4, as a reference antifouling agent. The anti-settlement bioactivity was assessed based on the presence or absence of fixed byssal threads produced by each individual larva for all tested conditions. […] EC50 values for each compound were calculated using Probit regression analysis. Significance was considered at p < 0.01, and 95% lower and upper confidence limits (95% LCL; UCL). The software IBM SPSS Statistics 28 was used for statistical analysis. The therapeutic ratio (LC50/EC50) was employed to evaluate the effectiveness versus the toxicity of the compounds ([Qian et al., 2009]; [Almeida and Vasconcelos, 2015]).

In the case of `CC1=CCC[C@@H](C)[C@]1(C)CC[C@@]1(C)c2c(O)cc3c(c2O[C@@H]1C)C(=O)C=C(CO)C3=O` (relative stereo) [compound 1, madeirone], the “Biofilm inhibition (%) P. inhibens” value ([1]; 0.98 µg/mL, 48 h) is reported as “N.I”, the “Biofilm inhibition (%) P. inhibens” value ([1]; 1.95 µg/mL, 48 h) is reported as “N.I” and the “Biofilm inhibition, up to (highest over tested concentrations) P. inhibens” value [1] is reported as “up to 66%”. The inhibition at 3.91 µg/mL ([1]; Phaeobacter inhibens, 3.91 µg/mL, 48 h) was 10.2 ± 3.7%, the inhibition at 7.81 µg/mL ([1]; Phaeobacter inhibens, 48 h) was 33.9 ± 1.3% and the inhibition at 15.6 µg/mL ([1]; Phaeobacter inhibens, 48 h) was 53 ± 1%. For the same compound, the inhibition at 31.25 µg/mL ([1]; Phaeobacter inhibens, 48 h) was 66.7 ± 0.3%, the inhibition at 0.98 µg/mL ([2]; 0.98 µg/mL) was 20.7 ± 1.1% and the inhibition at 1.95 µg/mL [2] was 26.6 ± 0.8%. The inhibition at 3.91 µg/mL [2] was 31 ± 0.7%, the inhibition at 7.81 µg/mL [2] was 35.9 ± 0.5% and the inhibition at 15.6 µg/mL [2] was > 40%. The inhibition at 31.25 µg/mL [2] was > 40%, the “Biofilm inhibition (%) M. hydrocarbonoclasticus” value ([3]; 0.98 µg/mL, 24 h) was “N.I” and the “Biofilm inhibition (%) M. hydrocarbonoclasticus” value ([3]; 1.95 µg/mL, 24 h) was “N.I”. The “Biofilm inhibition (%) M. hydrocarbonoclasticus” value ([3]; 3.91 µg/mL, 24 h) was “N.I”, the “Biofilm inhibition, up to (highest over tested concentrations) M. hydrocarbonoclasticus” value [3] was “up to 60%” and the inhibition at 7.81 µg/mL ([3]; Marinobacter nauticus, 24 h) was 14.2 ± 3.6%. For the same compound, the inhibition at 15.6 µg/mL ([3]; Marinobacter nauticus, 24 h) was 33.9 ± 2.1%, the inhibition at 31.25 µg/mL ([3]; Marinobacter nauticus, 24 h) was 60.1 ± 0.5% and the “Biofilm inhibition (%) M. luteus” value ([4]; 0.98 µg/mL, 48 h) was “N.I”. The “Biofilm inhibition (%) M. luteus” value ([4]; 1.95 µg/mL, 48 h) was “N.I”, the “Biofilm inhibition (%) M. luteus” value ([4]; 3.91 µg/mL, 48 h) was “N.I” and the “Biofilm inhibition (%) M. luteus” value ([4]; 7.81 µg/mL, 48 h) was “N.I”. For the same compound, the “Biofilm inhibition (%) M. luteus” value ([4]; 15.60 µg/mL, 48 h) was “N.I”, the inhibition at 31.25 µg/mL ([4]; Micrococcus luteus, 48 h) was 35.3 ± 0.2% and the “Growth inhibition (%) M. hydrocarbonoclasticus” value ([5]; 0.98 µg/mL) was “N.I”. For the same compound, the “Growth inhibition (%) M. hydrocarbonoclasticus” value ([5]; 1.95 µg/mL) was “N.I”, the “Growth inhibition (%) M. hydrocarbonoclasticus” value ([5]; 3.91 µg/mL) was “N.I” and the “Growth inhibition (%) M. hydrocarbonoclasticus” value ([5]; 7.81 µg/mL) was “N.I”. For the same compound, the “Growth inhibition (%) M. hydrocarbonoclasticus” value ([5]; 15.60 µg/mL) was “N.I”, the “Growth inhibition (%) M. hydrocarbonoclasticus” value ([5]; 31.25 µg/mL) was “N.I” and the “EC50 [Conf. Limits] anti-settlement” value [6] was 1.755 (1.308–5.492) µg/mL. The EC50 [6] was 1.76 µg/mL (≈ 4.15 µM).

With `CC1=CCC[C@@H](C)[C@]1(C)CC[C@@]1(C)c2c(O)cc3c(c2O[C@@H]1C)C(=O)C(C)=C(O)C3=O` [compound 2, neomarinone] the “Biofilm inhibition (%) P. inhibens” value ([1]; 0.98 µg/mL, 48 h) was “N.I”, the “Biofilm inhibition (%) P. inhibens” value ([1]; 1.95 µg/mL, 48 h) was “N.I” and the “Biofilm inhibition (%) P. inhibens” value ([1]; 3.91 µg/mL, 48 h) was “N.I”. For the same compound, the “Biofilm inhibition, up to (highest over tested concentrations) P. inhibens” value [1] was “up to 41%”, the inhibition at 7.81 µg/mL ([1]; Phaeobacter inhibens, 48 h) was 11.6 ± 1.8% and the inhibition at 15.6 µg/mL ([1]; Phaeobacter inhibens, 48 h) was 30 ± 0.6%. For the same compound, the inhibition at 31.25 µg/mL ([1]; Phaeobacter inhibens, 48 h) was 41.3 ± 0.9%, the “Growth inhibition (%) P. batsensis” value ([2]; 0.98 µg/mL) was “N.I” and the inhibition at 1.95 µg/mL [2] was 0.3 ± 0.5%. The inhibition at 3.91 µg/mL [2] was 4.2 ± 0.3%, the inhibition at 7.81 µg/mL [2] was 0% and the inhibition at 15.6 µg/mL [2] was 0.9 ± 0.4%. The inhibition at 31.25 µg/mL [2] was 11.1 ± 0.4%, the “Biofilm inhibition, up to (highest over tested concentrations) M. hydrocarbonoclasticus” value [3] was ≤ 56% and the inhibition at 0.98 µg/mL ([3]; Marinobacter nauticus, 0.98 µg/mL, 24 h) was 49.2 ± 6.2%. The inhibition at 1.95 µg/mL ([3]; Marinobacter nauticus, 1.95 µg/mL, 24 h) was 58.1 ± 1.6%, the inhibition at 3.91 µg/mL ([3]; Marinobacter nauticus, 3.91 µg/mL, 24 h) was 54.5 ± 3.6% and the inhibition at 7.81 µg/mL ([3]; Marinobacter nauticus, 24 h) was 54.4 ± 1.8%. The inhibition at 15.6 µg/mL ([3]; Marinobacter nauticus, 24 h) was 56.7 ± 1.5%, the inhibition at 31.25 µg/mL ([3]; Marinobacter nauticus, 24 h) was 29 ± 10.1% and the “Biofilm inhibition (%) M. luteus” value ([4]; 0.98 µg/mL, 48 h) was “N.I”. The “Biofilm inhibition (%) M. luteus” value ([4]; 1.95 µg/mL, 48 h) was “N.I”, the “Biofilm inhibition, up to (highest over tested concentrations) M. luteus” value ([4]; 0.98-31.25 µg/mL tested) was “up to 40%” and the inhibition at 3.91 µg/mL ([4]; Micrococcus luteus, 3.91 µg/mL, 48 h) was 7.8 ± 16.9%. It also gave an inhibition at 7.81 µg/mL ([4]; Micrococcus luteus, 7.81 µg/mL, 48 h) of 29.9 ± 12.4%, an inhibition at 15.6 µg/mL ([4]; Micrococcus luteus, 15.60 µg/mL, 48 h) of 41 ± 8.2% and an inhibition at 31.25 µg/mL ([4]; Micrococcus luteus, 48 h) of 33.3 ± 7.3%. The “Growth inhibition (%) M. hydrocarbonoclasticus” value ([5]; 0.98 µg/mL) was “N.I”, the “Growth inhibition (%) M. hydrocarbonoclasticus” value ([5]; 1.95 µg/mL) was “N.I” and the “Growth inhibition (%) M. hydrocarbonoclasticus” value ([5]; 3.91 µg/mL) was “N.I”. The “Growth inhibition (%) M. hydrocarbonoclasticus” value ([5]; 7.81 µg/mL) was “N.I”, the “Growth inhibition (%) M. hydrocarbonoclasticus” value ([5]; 15.60 µg/mL) was “N.I” and the inhibition at 31.25 µg/mL ([5]; Marinobacter nauticus, 31.25 µg/mL) was 4.2 ± 0.8%. The “EC50 [Conf. Limits] anti-settlement” value [6] was 0.119 (0.015–0.253) µg/mL and the EC50 [6] was 0.12 µg/mL (≈ 0.283 µM).

— article PMC11306024, “Novel metabolite madeirone and neomarinone extracted from Streptomyces aculeoletus as marine antibiofilm and antifouling agents” (Frontiers in Chemistry, 2024)
